Source: patent US20210244028A1, “TREATMENT FOR REMOVING ECTOPARASITES FROM FISH” (priority 2018, published 2021)
Several values for one entry are separate records, joined by “and”; a condition that tells them apart may be missing. Equal values may be shown once. Read-outs that look alike come from different tables or passages of the source.

How the values were obtained:
[1] = system: Lepeophtheirus salmonis; conditions: for percentage of sea lice that dropped from treated fish at the end of the treatment period / knockdown times (mean±SEM) / percentage of lice for which their knockdown time equalled that of the exposure time: 20 ppm (nitenpyram 19 ppm); for percentage of sea lice that dropped from treated fish at the end of the treatment period: culled fish; for knockdown times (mean±SEM) / percentage of lice for which their knockdown time equalled that of the exposure time: * only one louse knocked down
Experimental: The fish were acclimatised until normal feeding behaviour resumed, up to a maximum of 10 days, prior to challenge. The fish were housed in 750 litre tanks at a stocking density of no greater than 35 kg/m3. Tanks were provided with a continuous supply of seawater at a flow rate greater than 5 L/min at a temperature of 4.8-10.4° C. The photoperiod was set at 12 hours light: 12 hours dark.
The fish were challenged in a static bath with copepodid instar of Lepeophtheirus salmonis with the appearance of egg strings freshly removed from adult female lice at a target titre of 1,250-1,700 copepodids per tank
Egg strings were harvested from gravid sea lice and incubated in upwelling chambers until nauplii eclosion. Nauplii were allowed to moult through to the copepodid instar (5 days at approx. 10° C.) and then the tank water was filtered through a 100 μm mesh before re-suspending the copepodids in 225 mL of sea water. A 25 mL sample was removed which was then split into 1-2 mL samples in a 24-well plate and the nauplii/copepodids were counted under a stereo microscope. When abundance was sufficient and a minimum of 80% were copepodids the fish were challenged for 8 hours under static flow in the dark.
Fish were randomly selected from tanks, lightly sedated in a 90 ppm MS222 solution sufficient only to induce loss of equilibrium before being sacrificed by a non-recoverable blow to the head. Between 4 and 33 fish were required per treatment.
Culled fish were then suspended in treatment tanks. Fish were suspended in the tank horizontally from cable ties (one through the opercular cavity, one around the peduncle) and wire attached to a wooden rod). One 20 L tank of test item at 20 ppm was used per day. Lice on culled fish were exposed for either 5, 10, 15, 30 or 60 minutes (negative control was only exposed for 60 minutes as this would cover the longest exposure period to be tested). The order within treatment was randomised.
(§1) Lice were monitored continuously for the duration of the exposure and behavioural observations noted, including detachment of lice from fish. At the end of exposure lice were either removed from the tank or fish, placed into small vented plastic screw-top containers (125 mL, LDPE, 25 mm hole drilled into lid and secured with 200 μm mesh), and transferred to a clean tank supplied with filtered sea water and held there for 24 h. Lice which had detached from fish were kept separate from those that had not detached.
On the day of exposure, 200 mg of the test ectoparasite treatments was added to 1 L of sea water. Only 192 mg of nitenpyram was supplied. The solution was mechanically stirred for 30 minutes, using a stirring plate and magnetic flea (VWR), at a speed sufficient to generate a strong vortex to ensure a homogenous solution. This was then transferred into an approx. 25 L clear plastic tank containing 9 L of sea water. The solution was then mixed for a further 10 minutes using a small pump (Fluval Sea CP1), which was then removed from the tank prior to addition of fish.
Each treatment requiring 1 to 4 fish per individual treatment per replicate and 2 to 13 fish per group per replicate. Treatments with negative control (sea water), dinotefuran, clothianidin and thiamethoxam were replicated twice, and for imidacloprid three times. There was only one replicate per treatment for nitenpyram. The mean number of lice used per individual treatment was 5.5 to 10, with the mean per group being 6.2-7.2 lice.

[2] = system: Lepeophtheirus salmonis; conditions: for percentage responsiveness of lice recovered from tank at treatment end at 24 hours post-treatment: lice knocked off fish
Experimental: as §1
24 h post-treatment lice were removed from the screw-top containers to check if they were alive and, if so, if they were responsive. Categories were defined as follows: alive—movement detected; responsive—alive and actively avoids stimulation in a coordinated manner; dead—no movement detected.
Lice defined as responsive could potentially re-attach to a fish. After assessment lice were transferred to 70% alcohol in case determination of instar and sex was required.

[3] = exposure 5 min, 20 ppm (nitenpyram 19 ppm), 24 h post-treatment
[4] = exposure 10 min, 20 ppm (nitenpyram 19 ppm), 24 h post-treatment
[5] = exposure 15 min, 20 ppm (nitenpyram 19 ppm), 24 h post-treatment
[6] = exposure 15 min, 20 ppm (nitenpyram 19 ppm)
[7] = exposure 30 min, 20 ppm (nitenpyram 19 ppm), 24 h post-treatment
[8] = exposure 60 min, 20 ppm (nitenpyram 19 ppm), 24 h post-treatment
[9] = exposure 60 min, 20 ppm (nitenpyram 19 ppm)
[10] = exposure 30 min, 20 ppm (nitenpyram 19 ppm)

| SMILES | percentage of sea lice that dropped from treated fish at the end of the treatment period ([1]; exposure 5 min) [%] | percentage of sea lice that dropped from treated fish at the end of the treatment period ([1]; exposure 10 min) [%] | percentage of sea lice that dropped from treated fish at the end of the treatment period ([1]; exposure 15 min) [%] | knockdown times (mean±SEM) ([1]; exposure 15 min) | percentage of lice for which their knockdown time equalled that of the exposure time ([1]; exposure 15 min) | percentage of sea lice that dropped from treated fish at the end of the treatment period ([1]; exposure 30 min) [%] | percentage of sea lice that dropped from treated fish at the end of the treatment period ([1]; exposure 60 min) [%] | knockdown times (mean±SEM) ([1]; exposure 60 min) | percentage of lice for which their knockdown time equalled that of the exposure time ([1]; exposure 60 min) | percentage responsiveness for sea lice recovered from fish at the end of the treatment period [2, 3] [%] | percentage responsiveness for sea lice recovered from fish at the end of the treatment period [2, 4] [%] | percentage responsiveness for sea lice recovered from fish at the end of the treatment period [2, 5] [%] | percentage responsiveness of lice recovered from tank at treatment end at 24 hours post-treatment [2, 6] [%] | percentage responsiveness for sea lice recovered from fish at the end of the treatment period [2, 7] [%] | percentage responsiveness for sea lice recovered from fish at the end of the treatment period [2, 8] [%] | percentage responsiveness of lice recovered from tank at treatment end at 24 hours post-treatment [2, 9] [%] | knockdown times (mean±SEM) ([1]; exposure 30 min) | percentage of lice for which their knockdown time equalled that of the exposure time ([1]; exposure 30 min) | percentage responsiveness of lice recovered from tank at treatment end at 24 hours post-treatment [2, 10] [%] | further results |
| --- | --- | --- | --- | --- | --- | --- | --- | --- | --- | --- | --- | --- | --- | --- | --- | --- | --- | --- | --- | --- |
| CCN(Cc1ccc(Cl)nc1)/C(=C/[N+](=O)[O-])NC [nitenpyram] | 0 | 0 | 16.7 | 900* seconds | 100* % | 0 | 14.3 | 3600* seconds | 100* % | 100 | 100 | 100 | 0 | 100 | 100 | 0 |  |  |  | Responsiveness of lice still on fish at end of exposure ([2]; all exposure durations (5-60 min), 19 ppm): unaffected at all exposure durations |
| CN/C(=N/CC1CCOC1)N[N+](=O)[O-] (centres unmarked) [dinotefuran] | 0 | 0 | 0 | 900* seconds | 100* % | 7.7 | 53.3 | 3109 ± 224 s | 25% |  |  |  | 100 |  |  | 71 | 1800* seconds | 100* % | 0 | percentage responsiveness for sea lice recovered from fish at the end of the treatment period [2]: 88% and 73% and 100% and 69% and 83% |
| CN1COCN(Cc2cnc(Cl)s2)/C1=N\[N+](=O)[O-] [thiamethoxam] | 0 | 0 | 0 |  |  | 0 | 0 |  |  | 100 | 100 | 100 |  | 100 | 92 |  |  |  |  | Knockdown effect ([1]; 20 ppm, exposure 5 to 60 minutes): No knockdown |
| CN/C(=N\[N+](=O)[O-])NCc1cnc(Cl)s1 [clothianidin] | 0 | 0 | 9.1 | 900* seconds | 100* % | 69.2 | 54.5 | 2289 ± 424 s | 33.3% | 100 | 93 | 90 | 0 | 75 | 100 | 33 | 1706 ± 71 s | 77.8% | 44 |  |
